Data taken from patent publication US7880010B2, “Crystalline forms of a dimethylphenyl compound” (Theravance, Inc., priority 2006, dated 2011).

Experiments:
bronchoconstriction = assay: Einthoven assay, duration of bronchoprotection; details: guinea pigs, 10 μg/mL
Experimental: The magnitude of bronchoprotection at different time-points after inhalation of the test compound was used to estimate the pharmacodynamic half-life (PD T1/2). PD T1/2 was determined using a non-linear regression fit using a one-phase exponential decay equation (GraphPad Prism, Version 4.00): Y=Span*exp(−K*X)+Plateau; Starts at Span+Plateau and decays to Plateau with a rate constant K. The PD T1/2=0.69/K. Plateau was constrained to 0.

[1] = Dynamic moisture sorption (DMS) assessment; format: physicochemical
Experimental: A dynamic moisture sorption (DMS) assessment (also known as a moisture sorption-desorption profile) was performed for a hand ground samples of Form I, Form II and Form III of crystalline biphenyl-2-ylcarbamic acid 1-[2-(4-{[(R)-2-(3-formylamino-4-hydroxyphenyl)-2-hydroxyethylamino]methyl}-2,5-dimethylphenylcarbamoyl)-ethyl]piperidin-4-yl ester using a VTI atmospheric microbalance, SGA-100 system (VTI Corp., Hialeah, Fla. 33016). A sample size of approximately 10 mg was used and the humidity was set at the ambient value at the start of the analysis. A typical DMS analysis consisted of three scans: ambient to 2% relative humidity (RH), 2% RH to 90% RH, 90% RH to 5% RH at a scan rate of 5% RH/step. The mass was measured every two minutes and the RH was changed to the next value (±5% RH) when the mass of the sample was stable to within 0.01% for 5 consecutive points. Representative DMS traces for Form I, Form II and Form III are shown in FIGS. 10, 11 and 12, respectively.

[2] = Differential scanning calorimetry, thermal stability; format: physicochemical; details: DSC, FIG. 5
Experimental: Differential scanning calorimetry (DSC) was performed using a TA Instruments Model Q-100 module with a Thermal Analyst controller. Data were collected and analyzed using TA Instruments Thermal Solutions software. A sample of about 1 mg was accurately weighed into an aluminum pan with lid. The sample was evaluated using a linear heating ramp of 5° C./min from ambient temperature to approximately 300° C. The DSC cell was purged with dry nitrogen during use. Representative DSC traces for samples of Form I, Form II and Form III of crystalline biphenyl-2-ylcarbamic acid 1-[2-(4-{[(R)-2-(3-formylamino-4-hydroxyphenyl)-2-hydroxyethylamino]methyl}-2,5-dimethylphenylcarbamoyl)ethyl]piperidin-4-yl ester are shown in FIGS. 4, 5 and 6, respectively.

Structure (SMILES)	duration of significant bronchoprotection (bronchoconstriction)	hygroscopicity ([1]; DMS, 2% RH to 90% RH, reversible sorption/desorption profile) [%]	weight gain ([1]; humidity range of 40% RH to 75% RH, DMS trace FIG. 11)	weight gain ([1]; humidity range of 40% relative humidity to 75% relative humidity)	deliquescence ([1]; moisture sorption/desorption, exposure to atmospheric moisture)	thermal stability [2]
C[N+]1(C)[C@@H]2C[C@@H](OC(=O)C(O)(c3cccs3)c3cccs3)C[C@H]1[C@@H]1O[C@@H]12 [tiotropium]	greater than 72 hours					
Cc1cc(NC(=O)CCN2CCC(OC(=O)Nc3ccccc3-c3ccccc3)CC2)c(C)cc1CNC[C@H](O)c1ccc(O)c(NC=O)c1 [Form II, Biphenyl-2-ylcarbamic acid 1-[2-(4-{[(R)-2-(3-Formylamino-4-hydroxyphenyl)-2-hydroxyethylamino]methyl}-2,5-dimethylphenylcarbamoyl)ethyl]piperidin-4-yl Ester]		< 5	about 0.3 weight %	less than 0.5%	not deliquescent	excellent thermal stability
